Measurements taken from patent US8263353B2, “Method for detecting autoprocessed, secreted PCSK9” (Merck Sharp & Dohme Corp., priority 2007, dated 2012).
Values belong to the substance of their own block, whether it stands above or below them.

Experiments:
Type in all cases: cell-based
[1] = system: diI-LDL uptake in HEK293 cells; assay: DiI-LDL uptake assay (PCSK9-dependent LDL-uptake assay)
Procedure: Blood for LDL isolation was obtained from healthy human volunteers. Blood (200 ml) was collected in EDTA tubes and spun at 15,000 rpm for 15 min at 4° C. Plasma density was adjusted to 1.02 g/ml with sodium bromide and the tubes were centrifuged at 45,000 rpm in Ti70 ultracentrifuge rotor for 20 hr. The VLDL layer was removed and the bottom layer was recalibrated to a density of 1.063 g/ml with sodium bromide. The tubes were again centrifuged at 45,000 rpm in Ti70 rotor for 72 hr. The LDL layer was removed and dialysed against PBS pH 7.4 and 0.5 M EDTA. The final protein concentration was determined using a BCA Protein Assay Kit. LDL was labeled with a fluorescent DiI particle (Molecular Probes). A stock solution containing 3 mg of DiI dissolved in 1 ml of dimethyl sulfoxide (DMSO) was prepared. This stock solution of D11 was added to LDL at a final concentration of 135 μg of DiI to 1 ml of LDL. The labeling reaction was incubated at 37° C. for 24 hr in the dark followed by LDL isolation as mentioned above.
HEK293 cells stably expressing the vector pcDNA3.1 alone were plated in a 96-well poly D-lysine coated plate (Corning) at a density of 30,000 cells/well in 1×DMEM, containing 1 mg/ml G418 and 10% FBS (HEK293). A similar plating protocol was followed for HepG2 and CHO cells except that G418 was not added to the media. After 24 hr, the media was switched to DMEM media lacking serum. After 18 hr, the media was removed and the cells were washed with OptiMEM (Invitrogen). Purified PCSK9 protein was added to the cells in 100 μl of mixture B (DMEM containing 10% lipoprotein deficient serum (LPDS) (Intracel) and 10 μg/ml dI-LDL). To measure non-specific binding, 100 μl of mixture B that also contained 400 μg/ml unlabeled LDL was added to control wells. The plates were incubated at 37° C. for 6.5 hours and the cells were washed quickly in Tris-buffered saline (TBS, Biorad) containing 2 mg/ml Bovine Serum Albumin (BSA) (Sigma). The wash step was repeated, but this time the wash buffer was incubated for 2 min with the cells. Last, the cells were quickly washed twice with TBS (without BSA) and lysed in 100 μl RIPA buffer. The lysate was transferred to a 96-well black plate (Thermo Labsystem) and fluorescence was measured using a SpectraMAX tunable spectrofluorometer (Molecular Devices) at an excitation wavelength of 520 nm and an emission wavelength of […] Total cellular protein was measured in each well using a BCA Protein Assay and the fluorescence units were normalized to total protein. The amount of specific LDL uptake (specific counts) is the difference between the total counts measured (in the absence of unlabeled LDL) and the counts measured in the presence of an excess of unlabeled LDL (non-specific background fluorescence). […]

[2] = target: T1, PCSK9 processing (Homo sapiens, UniProt Q8NBP7, G670E/V474I); assay: Co-transfection of PCSK9 pro domain with wild type V5/His-tagged PCSK9, western blot of cell lysate and media; conditions: co-transfected pro domain
T1 construct: expressed in transfected cells
Procedure: FIGS. 10A and 10B illustrate inhibition of PSCK9 processing through co-transfection of PCSK9 pro domain. The figure illustrates the inhibition of PCSK9 processing is similar whether the domain is untagged, or tagged at the N-terminus with either an HA or His tag. […] The lanes are in order wild-type; wild-type; pro domain; HA pro domain; His pro domain.
Cells carrying vector alone (pcDNA3.1) or vector plus PCSK9 (PCSK9-152 FLAG-V5/His and PCSK9-152 FLAG-V5/His-S386A) were plated in 1×DMEM containing 1 mg/ml G418 supplemented with 10% FBS. After 24 hr, the media was switched to DMEM media lacking serum. After an additional 6 hr, the media was removed and the cells were lysed in RIPA buffer (TEKNOVA) plus Complete protease inhibitor cocktail (Roche). Protein concentration was assayed with BCA Protein Assay Kit (Pierce). […] of proteins from lysate or 15 μl media were loaded on 10-20% Tris-Glycine gels (Invitrogen). Following transfer, membranes were successively incubated with 1:5000 anti-VS (Invitrogen), 1:3000 anti-FLAG ml (Sigma-Aldrich Co.) or 1:3000 anti_FLAG m2 (Sigma-Aldrich Co.) primary antibody and 1:3000 anti-mouse IgG (H+L) alkaline phosphatase conjugate (Promega). Bands were subsequently detected using a 1-step NBT/BCIP Kit (Pierce) according to manufacturer's instructions. […]

[3] = target: T2, PCSK9 processing (Homo sapiens, UniProt Q8NBP7, D186A/G670E/V474I); assay: Western blot of HEK293 cells stably expressing PCSK9 mutant D186A; conditions: HEK293 stable cell line; FIG. 11A
T2 construct: expressed in transfected cells
Procedure: Cells carrying vector alone (pcDNA3.1) or vector plus PCSK9 (PCSK9-152 FLAG-V5/His and PCSK9-152 FLAG-V5/His-S386A) were plated in 1×DMEM containing 1 mg/ml G418 supplemented with 10% FBS. After 24 hr, the media was switched to DMEM media lacking serum. After an additional 6 hr, the media was removed and the cells were lysed in RIPA buffer (TEKNOVA) plus Complete protease inhibitor cocktail (Roche). Protein concentration was assayed with BCA Protein Assay Kit (Pierce). […] of proteins from lysate or 15 μl media were loaded on 10-20% Tris-Glycine gels (Invitrogen). Following transfer, membranes were successively incubated with 1:5000 anti-VS (Invitrogen), 1:3000 anti-FLAG ml (Sigma-Aldrich Co.) or 1:3000 anti_FLAG m2 (Sigma-Aldrich Co.) primary antibody and 1:3000 anti-mouse IgG (H+L) alkaline phosphatase conjugate (Promega). Bands were subsequently detected using a 1-step NBT/BCIP Kit (Pierce) according to manufacturer's instructions.
420:55-67. […] Media from the D186A stable cell line was purified using column chromatography (as described) to obtain both purified nonprocessed and processed D186A (FIG. 11B). Similar to the WT PCSK9 protein processed D186A retains the pro domain after several column purifications (FIG. 11B).

T1 sequence (Q8NBP7 31-692 V474I/G670E): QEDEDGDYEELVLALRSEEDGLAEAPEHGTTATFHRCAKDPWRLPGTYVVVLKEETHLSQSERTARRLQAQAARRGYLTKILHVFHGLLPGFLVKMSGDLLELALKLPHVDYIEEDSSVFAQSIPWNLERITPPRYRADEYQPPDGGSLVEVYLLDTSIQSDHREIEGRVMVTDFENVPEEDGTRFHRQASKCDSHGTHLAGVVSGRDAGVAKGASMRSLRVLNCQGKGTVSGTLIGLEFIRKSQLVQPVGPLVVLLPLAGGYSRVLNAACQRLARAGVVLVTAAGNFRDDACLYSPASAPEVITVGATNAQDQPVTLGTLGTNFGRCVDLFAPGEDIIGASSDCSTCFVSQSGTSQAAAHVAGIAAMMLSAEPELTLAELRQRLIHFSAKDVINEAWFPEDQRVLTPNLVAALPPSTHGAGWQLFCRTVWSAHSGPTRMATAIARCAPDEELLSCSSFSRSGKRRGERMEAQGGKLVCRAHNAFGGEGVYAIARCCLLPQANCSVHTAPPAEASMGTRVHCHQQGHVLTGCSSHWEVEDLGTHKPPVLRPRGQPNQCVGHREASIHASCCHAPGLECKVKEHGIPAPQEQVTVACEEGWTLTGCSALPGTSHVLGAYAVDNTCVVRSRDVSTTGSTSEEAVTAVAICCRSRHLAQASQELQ
T2 sequence (Q8NBP7 31-692 D186A/V474I/G670E): as the sequence (Q8NBP7 31-692 V474I/G670E) above, with D156A counted along it

Substance: nonprocessed D186A: Purified secreted, nonprocessed form of human PCSK9 mutant D186A (SEQ ID NO: 34)
- fold less active than processed PCSK9 in PCSK9-dependent LDL uptake ([1]; FIG. 11C): ~20 fold
- activity in PCSK9-dependent LDL-uptake assay ([1]; HEK293 cells, purified protein, FIG. 11C): only weakly active

- amount of processed PCSK9 in cell lysate compared to cells expressing wild type alone ([2]; cell lysate, FIG. 10A): reduced
- processed PCSK9 detected in the media ([2]; media, FIG. 10B): less processed PCSK9 was detected
Substance: PCSK9 pro domain: Human PCSK9 pro domain (SEQ ID NO: 20, residues 31-152) expressed from co-transfected nucleic acid

Substance: processed D186A: Purified secreted, autoprocessed form of human PCSK9 catalytic-triad mutant D186A, retaining the pro domain
- fold weaker in potency than WT PCSK9 ([1]; HEK293 cells): approximately 4 fold
- EC50 ([1]; HEK293 cells, purified protein, FIG. 11C, read-out: EC50 (amount of PCSK9 protein required for 50% inhibition of diI-LDL uptake)): 189 nM

- extent of processing [3]: 10-20%
Substance: D186A PCSK9 mutant: Human PCSK9 single catalytic-triad mutant D186A stably expressed in HEK293 cells
